Assay results taken from patent US20230365673A1, “MEANS FOR REDUCING RADIO- AND CHEMOTHERAPY RESISTANCE AND ADVERSE EFFECTS” (JOHANN WOLFGANG GOETHE-UNIVERSITÄT FRANKFURT AM MAIN, priority 2020, published 2023).

Legend:
[1] = system: colon fibroblasts; test: Nitrite concentration by Griess assay in fibroblast supernatants; assay type: cell-based, mouse; details: recombinant IL-1α 1 μg/mL, 72 hours
Method: (§1) (A) Schematic illustration of APTKA organoids supernatant collection and treatment of colon fibroblasts from unchallenged wildtype C57BL/6 mice for 12 h followed by 3×2 Gy irradiation. Microscopic, proteomic & transcriptomic analysis were performed 72 h post first irradiation. (B) Microscopic captures of non-irradiated wildtype (WT) and APTKA conditioned fibroblasts. Remaining captures belong to irradiated fibroblasts: WT, IL-1α (1 μg/mL) stimulated WT, and APTKA conditioned media minus or plus anakinra (20 μg/mL) treated fibroblasts. Scale bars=200 μm. (C) Mass spectrometric analysis of matrisome profiles of 3×2 Gy irradiated (n=8) and non-irradiated (n=8) APTKA conditioned fibroblasts. […] (G) Immunoblot analysis of untreated and irradiated APTKA conditioned fibroblasts. Representative results from one experiment which has been independently repeated 2 times. (H) SA-ß gal staining of untreated and irradiated APTKA fibroblasts. Scale bars=100 μm. (I and J) p21 and pH2AX immunofluorescent staining of untreated and irradiated APTKA fibroblasts. Scale bars=[…]. Data are mean±SD. ** […] and *** p<0.001 by t-test. (K) Nitrite concentration determined by Griess assay in conditioned media from WT, APTK media, APTKA media, IL-1α (1 μg/mL) stimulated and APTKA plus anakinra (20 μg/mL) treated fibroblasts for 72 h (n=10 independent wells per group). […]

[2] = system: colon fibroblasts; test: Oxidative DNA damage by 8-OHdG immunofluorescence in fibroblasts; assay type: cell-based, mouse; details: recombinant IL-1α 1 μg/mL, 72 hours
Method: as §1

[3] = system: human fibroblasts; test: Nitrite concentration by Griess assay in human fibroblast supernatants; assay type: cell-based; details: IL-1α 1 μg/mL only, 72 h
Excerpt: (A and B) Quantification of IL-1 and IL-1RA baseline serum levels in non-pCR (n=25) and pCR (n=7) patients before CRT. Data are mean±SD. ** p<0.01 by t-test. (C) IL-1RA serum level association with two SNPs: rs4251961 (T/C) and rs579543 (A/G) using DNA isolated from patients (n=31) pre-CRT peripheral blood mononuclear cells. Data are mean±SD. ** p=0.0052 by t-test. (D) Kaplan-Meier DFS curve of patients with high (n=37) and low (n=37) IL-1RN expression score (median split) based on the RNA sequencing data of pre-CRT biopsies. * p<0.05 by Log-rank (Mantel-Cox) test. […] (H) Paired analysis of sirius red staining of non-pCR patients (n=11) pre versus post-CRT. Scale bars=300 μm. (I) Paired quantification of p21 immunohistochemistry staining of non-pCR patients (n=10) pre versus post CRT. (J) Correlation analysis of pre-CRT serum IL-1RA levels with ratio of p21 induction (post/pre-CRT p21 RNA expression level) (n=10 non pCR patients). * p<0.05 by Spearman r correlation test. […] (M) Nitrite concentration determined by Griess assay in supernatants from WT, IL-1RA high & IL-1RA low conditioned media treated human fibroblasts for 72 h (n=13 independent wells per group). […] (N) Nitrite concentration determined by Griess assay in supernatants from untreated and IL-1α (1 μg/mL) stimulated human fibroblasts for 72 h (n=32 independent wells per group representing 3 independent experiments). […]

“recombinant IL-1α: recombinant cytokine used to stimulate fibroblasts” was tested, and the “nitrite levels in fibroblast supernatants” value [1] was “significantly elevated”, the “oxidative DNA damage (8-OHdG immunofluorescence)” value [2] was “increase in oxidative DNA damage” and the “nitrite production by fibroblasts” value [3] was “higher nitrite production by fibroblasts”.
